# According to patent US4757055A, “Method for selectively controlling unwanted expression or function of foreign nucleic acids in animal or mammalian cells” (The Johns Hopkins University, priority 1984, dated 1988):
# Columns and labels:
# E. coli B = assay: Colony formation by E. coli B (Example 1); assay type: cell-based; conditions: 37° C.
# Experimental: (1) E. coli, E. coli B was grown in M-9 medium supplemented with glucose ([…]) and 1% casamino acids. The cells were harvested in mid-log phase and resuspended in 50 μL of fresh medium containing 0-160 μM oligomer at a final cell density of 1×10^4 cells/mL. The cells were incubated for 1 h at 37° C. and then diluted with 0.9 mL of medium. A 0.8-mL aliquot was added to 2.5 mL of 0.8% Bactoagar at 45° C. This solution was quickly poured onto a 100-mm plate containing solid 1.2% Bactoagar. After solidification, the plates were incubated overnight at 37° C. and the resulting colonies were counted.
# [1] = system: transformed human fibroblast (HTB 1080) cells; assay: Colony formation by transformed human fibroblasts (Example 1); assay type: cell-based; conditions: 50 μM; 37° C.
# Experimental: (2) Transformed Syrian Hamster Embryonic Fibroblasts (BP-6) and Transformed Human Fibroblasts (HTB1080). Colony formation by the fibroblasts in the presence of the methylphosphonate analogues was carried out as described by Miller et al, Biochemistry 16, 1988 (1977).
substance,measurement,setting,value
d-ApT,"% inhibition of colony formation, E. coli B",E. coli B; 50 μM,4%
same,"% inhibition of colony formation, E. coli B",E. coli B; 160 μM,5%
same,"% inhibition of colony formation, HBT 1080",[1],12%
